Key:
[1] = tested on: mouse cervical cancer cell line U14; experiment: Mice U14 subcutaneous model, complex combined with chemotherapy; format: in vivo, C57 female mice; settings: U14 sc
Experimental: C57 female mice aged 6-8 weeks were raised. The mouse cervical cancer cell line U14 cultured to the logarithmic growth phase was prepared into a cell suspension and the cell density was 2×10^7/ml. Experimental animals were subcutaneously injected on the right back, with an injection system of 100 μl per mouse. When the tumor could be palpated (tumor volume is about 4 mm×4 mm×3 mm, i.e. the 5th day after inoculation), the mice were randomly divided into 6 groups, and administrated every 3 days for a total of 8 times according to the grouping and treatment scheme in Table 16. The tumor volume was measured every three days. After administration for 8 times, the mice were killed and subcutaneous tumors were dissected for examination.
Wherein, the administration volume is 100 μl per mouse, DDP is intraperitoneally administrated once a week. DDP is Cisplatin and LP is pMVA-1/DOTAP complex.

A549 cells [2] = experiment: ROS level by H2DCF-DA fluorescence probe, flow cytometry; format: cell-based
Experimental: (1) Sample loading: […] (3) […] CM-H2DCFDA fluorescent probe (made by Sigma) was added to the resuspended cells prepared in Step (2), incubated at 37° C. for 0.5 h, washed with PBS and resuspended; (4) The resuspended cells in Step (3) were tested with flow cytometry (Novocyte), and the test results were analyzed by Novoexpress software.

A549 cells [3] = experiment: Death ratio of A549 cells pretreated with NAC, flow cytometry; format: cell-based; settings: pretreated with NAC before pMVA-1/DOTAP complex

## N.N.[Cl][Pt][Cl] [Cisplatin]
[1]
  lymphocyte infiltration in tumor tissue: less common
[1]; Q3d x 8
  tumor volume vs NS group, DOTAP group and pMVA-1 group: significantly lower
[1]; Q3d x 8, Cisplatin ip once a week
  tumor growth: slow tumor growth

## OO [H2O2]
A549 cells [2]; A549, 3 h, H2O2 at 200 μM, *P<0.05
  intracellular ROS level: increased significantly

## CC(=O)N[C@@H](CS)C(=O)O [NAC, N-Acetyl-L-cysteine]
A549 cells [2]; A549 pretreated with 5 mM NAC before pMVA-1/DOTAP complex
  intracellular ROS level after NAC pretreatment: decreased significantly
A549 cells [3]
  death ratio of A549 cells: significantly reduced
